Measurements from US7615523B2, “Lens care product containing dexpanthenol” (Novartis AG, priority 2006, dated 2009).

What was measured:
[1] = antimicrobial (microbiological) efficacy of contact lens care solutions; settings: addition of sorbit to contact lens care compositions
[2] = cytotoxicity studies on addition of dexpanthenol and D-sorbit; type: cell-based; settings: addition of sorbit to compositions containing antimicrobial compounds, e.g. PHMB
[3] = stabilisation of the lachrymal film when inserting contact lenses; settings: when/after inserting the contact lenses
Description: Dexpanthenol, an alcohol of pantothenic acid, also called Provitamin B5, D-pantothenyl alcohol or D-panthenol, has been used for a long time for healing wounds or in the field of medicinal skin care. […] Vortex motion of the lachrymal liquid can occur through the insertion of contact lenses, namely because of mechanical eruption or through surface-active substances optionally present in the contact lens solution and can lead to severe loss of the aqueous lachrymal layer. […] This guards against the appearance of dryness, which can lead to a reduced lachrymal film.
The addition of D-sorbit to adjust the tonicity of contact lens care products is known. GB 2,205,175 and U.S. Pat. No. 3,888,782 describe sorbit as a carrier material for the preparation of powder mixtures for contact lens care products. […] This guards against the appearance of dryness, which can lead to a reduced lachrymal film. […] Negative effects caused by surface-active substances and preservatives are reduced and the contact lenses are prevented from drying out.

Row | SMILES | effect on microbiological efficacy of antimicrobial compounds present, e.g. PHMB [1] | toxicity [2] | lachrymal film stabilisation [3]
1 | OC[C@@H](O)[C@@H](O)[C@H](O)[C@@H](O)CO [sorbit, D-sorbit] | substantially increases the microbiological efficacy | without resulting in negative effects as regards toxicity | –
2 | CC(C)(CO)[C@@H](O)C(=O)NCCCO [dexpanthenol] | – | – | stabilises the lachrymal film
